Data from patent US12133922B2, “Abuse resistant capsule” (R.P. Scherer Technologies, LLC, priority 2013, dated 2024).
Where a name gives a salt, the structure may show the parent alone.

Assay: aqueous, methanol and acidic extraction of capsule fill, assay by HPLC
Format: physicochemical
Experimental: In order to ascertain the resistance to aqueous and acidic extraction, the fill mass of 10 capsules was mixed with different amounts of purified water (5 mL/caps. and 10 mL/caps.) and extracted for 1, 3 or 5 days. Further, the fill mass of 10 capsules was mixed with 20 mL of methanol and was extracted for 3 days.
The fill mass of 10 capsules of Formulation A or Formulation B was mixed with 20 mL of 0.1 N hydrochloric acid and extracted for one day. Comparison solutions of Pseudoephedrine HCl (labeled as API in the table below) were prepared. After an extraction of the formulation/solvent mixture, the mixtures were centrifugated and the assay of pseudoephedrine HCl was analyzed by HPLC. Even after centrifugation the solutions were turbid. The results were normalized to a capsule containing 1164.8 mg of pseudoephedrine HCl.

## CN[C@@H](C)[C@@H](O)c1ccccc1 [API, Pseudoephedrine HCl]
Comparison solution, 1 day, 50 mL water
  Calculated Mass of recoverable Pseudoephedrine HCl: 1026.0 mg
Comparison solution, 3 days, 50 mL water
  Calculated Mass of recoverable Pseudoephedrine HCl: 1243.7 mg
Comparison solution, 5 days, 50 mL water
  Calculated Mass of recoverable Pseudoephedrine HCl: 1227.7 mg
Extraction 1 day, 20 mL HCl 0.1 mol/L with neutralisation
  Calculated Mass of recoverable Pseudoephedrine HCl: 1197.3 mg
Extraction 1 day, 20 mL HCl 0.1 mol/L without neutralisation
  Calculated Mass of recoverable Pseudoephedrine HCl: 1054.7 mg
Extraction 3 days, 20 mL methanol
  Calculated Mass of recoverable Pseudoephedrine HCl: 1165.6 mg
